{"source": "patent US7745641B2", "about": "“Nitrogen-containing heterocyclic compound” (Kyowa Hakko Kirin Co., Ltd., priority 2005, dated 2010)", "origin": "cited, not measured here", "key": {"[1]": {"tested_on": "human-tumor-transplant mouse models", "details": "cited from earlier work"}, "[2]": {"tested_on": "human-tumor-transplant rat models", "details": "cited from earlier work"}}}
{"smiles": "Cc1cc(Nc2cc(N3CCN(C)CC3)nc(Sc3ccc(NC(=O)C4CC4)cc3)n2)n[nH]1", "note": "[VX-680]", "values": [{"measurement": "antitumor activity", "setting": "[1]", "value": "exhibits an antitumor activity"}, {"measurement": "antitumor activity", "setting": "[2]", "value": "exhibits an antitumor activity"}]}
